Patent US4175081A, “5-Substituted thiadiazole ureas” (priority 1977, dated 1979)

Columns and labels:
[1] = system: Crabgrass (CG); test: Pre-emergence herbicide test; format: in vivo, Digitaria sanquinalis; conditions: Digitaria sanguinalis, pre-emergence, 336 h, two weeks after treatment; for pest or weed control at 4483.4 g/ha: 4 lb/acre
Summary of the method: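 Crabgrass (Digitaria sanquinalis) was surface seeded in 3' plastic pots of potting soil, covered with screened soil, and watered by sub-irrigation in greenhouse trays. Pots were seeded one day before spraying in a hood with a moving belt and fixed nozzle. Plants stayed in the greenhouse on sub-irrigation, and pre-emergence control was rated visually two weeks after treatment.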

[2] = system: Johnson grass (JG); test: Pre-emergence herbicide test; format: in vivo, Sorgum helepense; conditions: Sorghum halepense, 336 h, two weeks after treatment; for pest or weed control at 4483.4 g/ha: 4 lb/acre
Summary of the method: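 Pots seeded one day before spraying; compound applied pre-emergence at 8 lbs/acre (or 4 lbs/acre) in 38 gallons/acre spray volume. Sub-irrigated in greenhouse; injury/control rated visually two weeks after treatment.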

[3] = system: Amaranth pigweed (PW); test: Pre-emergence herbicide test; format: in vivo, Amaranthus retroflexus; conditions: 336 h, two weeks after treatment; for pest or weed control at 4483.4 g/ha: 4 lb/acre
Protocol: (§1) All crop and weed species were planted individually in 3' plastic pots containing potting soil. Four seeds each of corn, cotton, and snapbeans were seeded to a depth equal to the diameter of the seed. All other species were surface seeded and sprinkled with screened soil in an amount sufficient to cover the seed. Immediately after planting, all pots were watered by sub-irrigation in greenhouse trays. Pots for the pre-emergence phase were seeded one day before treatment.
(§2) Compounds were tested at rates of application equivalent to 8 lbs. of actual compound per acre in a spray volume of 38 gallons per acre. Spray hood constants required to deliver the above volume are as follows:
(§3) Formulations for spray applications were prepared in 50 ml volumes with the following three components:
(§4) Formulations for the 4 lbs/acre rate were prepared by adjusting the amount of active ingredient accordingly.
(§5) Spray applications were made in a hood containing a removable belt and fixed spray nozzle. For passage through the spray hood, one pot of each specie (pre-emergence phase) was placed on the rear half of the flat. Treatments were removed to the greenhouse after spraying. Watering during the observation period was done only by sub-irrigation.
(§6) Two weeks after treatment, pre- and post-emergence injury or control was visually rated, and the results were as shown in the following tables. Pre-emergence data are provided in TABLE III and post-emergence data are provided in TABLE IV, for compounds having the formula illustrated in TABLE I. Correspondingly, pre-emergence and post-emergence data, respectively, are set forth in TABLES V AND VI, for compounds having the formula illustrated in TABLE II.

[4] = system: Turnip (TP); test: Pre-emergence herbicide test; format: in vivo, Brassica sp.; conditions: Brassica rapa, pre-emergence, 336 h, two weeks after treatment; for pest or weed control at 4483.4 g/ha: 4 lb/acre
Summary of the method: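 Turnip (Brassica sp.) seeds were surface sown in 3' plastic pots of potting soil, covered with a thin layer of screened soil, and sub-irrigated in greenhouse trays. Pots were seeded one day ahead of treatment, sprayed pre-emergence under a hood with a fixed nozzle and moving belt, then kept in the greenhouse.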

[5] = system: Cotton (CT); test: Pre-emergence herbicide test; format: in vivo, Gossypium hirsutum var. DPL smooth leaf; conditions: Gossypium hirsutum, 336 h, two weeks after treatment; for pest or weed control at 4483.4 g/ha: 4 lb/acre
Summary of the method: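 Crop and weed species seeded one day before treatment, then sprayed pre-emergence at 8 lbs actual compound per acre (also 4 lbs/acre formulations) in 38 gallons per acre. Pots kept in greenhouse with sub-irrigation only; injury or control visually rated two weeks after treatment.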

[6] = system: Corn (CN); test: Pre-emergence herbicide test; format: in vivo; conditions: Zea mays, 336 h, two weeks after treatment; for pest or weed control at 4483.4 g/ha: 4 lb/acre
Summary of the method: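 Four corn seeds per pot, sown at seed-diameter depth one day before spraying, got soil surface treatment at 8 lbs/acre (4 lbs/acre formulations also prepared) in 38 gallons/acre. Pots were greenhouse-held with sub-irrigation only. Injury or control was scored visually two weeks after treatment.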

[7] = system: Bean (BN); test: Pre-emergence herbicide test; format: in vivo, Phaseolus vulgaris var. Black Valentine; conditions: Phaseolus vulgaris, 336 h, two weeks after treatment; for pest or weed control at 4483.4 g/ha: 4 lb/acre
Summary of the method: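 Black Valentine bean was seeded in potting soil one day before spraying. Compound was applied pre-emergence at 8 lbs/acre (also 4 lbs/acre) in 38 gallons per acre. Plants were sub-irrigated and injury or control was rated visually after two weeks.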

[8] = system: Crabgrass (CG); test: Post-emergence herbicide test; format: in vivo, Digitaria sanquinalis; conditions: Digitaria sanguinalis, post-emergence, 336 h, two weeks after treatment; for pest or weed control at 4483.4 g/ha: 4 lb/acre
Summary of the method: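 Crabgrass (Digitaria sanquinalis) was surface seeded individually in 3' plastic pots of potting soil, covered with screened soil, and watered by sub-irrigation in greenhouse trays. Planting was staggered so seedlings reached the target stage together. Post-emergence sprays were applied in a hood with a removable belt and fixed nozzle, and control was visually rated two weeks after treatment.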

[9] = system: Johnson grass (JG); test: Post-emergence herbicide test; format: in vivo, Sorgum helepense; conditions: Sorghum halepense, 336 h, 4 lb/acre, two weeks after treatment
Summary of the method: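 Greenhouse pot-grown seedlings sprayed post-emergence at 8 lbs compound per acre (some at 4 lbs/acre) in 38 gallons per acre spray volume. Sub-irrigated thereafter. Injury/control rated visually two weeks after treatment.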

[10] = system: Amaranth pigweed (PW); test: Post-emergence herbicide test; format: in vivo, Amaranthus retroflexus; conditions: 336 h, 4 lb/acre, two weeks after treatment
Protocol: Amaranth pigweed (PW)--Amaranthus retroflexus
as §1
Planting dates for the post-emergence phase were varied so that all seedlings would reach the desired stage of development simultaneously. The proper stage of seedling development for treatment in the post-emergence phase is as follows:
Pigweed and turnips: 1 or 2 true leaves above visible cotyledons.
as §2, §3, §4, §5, §6

[11] = system: Turnip (TP); test: Post-emergence herbicide test; format: in vivo, Brassica sp.; conditions: Brassica rapa, post-emergence, 336 h, two weeks after treatment; for pest or weed control at 4483.4 g/ha: 4 lb/acre
Summary of the method: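 A greenhouse post-emergence herbicide test on turnip. Seeds were sown on the surface of potting soil in 3' plastic pots, lightly covered with screened soil and watered from below. Planting was timed so seedlings had 1 or 2 true leaves above the cotyledons at spraying, done in a hood with a fixed nozzle. Control or injury was scored by eye after two weeks.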

[12] = system: Cotton (CT); test: Post-emergence herbicide test; format: in vivo, Gossypium hirsutum var. DPL smooth leaf; conditions: Gossypium hirsutum, post-emergence, 336 h, two weeks after treatment; for pest or weed control at 4483.4 g/ha: 4 lb/acre
Summary of the method: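 Cotton (Gossypium hirsutum var. DPL smooth leaf) was grown in 3' plastic pots of potting soil, four seeds per pot, planted at a depth equal to the seed diameter and watered by sub-irrigation. At the stage of expanded cotyledons with the first true leaf 1' long, plants were sprayed post-emergence in a hood with a fixed nozzle over a moving belt. Percent control was rated visually two weeks later.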

[13] = system: Corn (CN); test: Post-emergence herbicide test; format: in vivo; conditions: Zea mays, 336 h, 4 lb/acre, two weeks after treatment
Summary of the method: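 Greenhouse seedlings grown in potting soil and sprayed post-emergence at 8 lbs compound/acre (formulations also made for 4 lbs/acre) in 38 gallons/acre spray volume. Watering by sub-irrigation only. Injury or control rated visually two weeks after treatment.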

[14] = system: Bean (BN); test: Post-emergence herbicide test; format: in vivo, Phaseolus vulgaris var. Black Valentine; conditions: Phaseolus vulgaris, post-emergence, 336 h, two weeks after treatment; for pest or weed control at 4483.4 g/ha: 4 lb/acre
Summary of the method: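 Snapbean (Phaseolus vulgaris var. Black Valentine) was tested post-emergence. Four seeds were sown in 3' plastic pots of potting soil at a depth equal to the seed diameter, then sub-irrigated in greenhouse trays. Planting dates were staggered so plants were sprayed once primary leaves had expanded, with the growing point at the primary leaf nodes.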

[15] = system: Barnyard grass (BG); test: Pre-emergence herbicide test; format: in vivo; conditions: Echinochloa crus-galli, 336 h, two weeks after treatment; for pest or weed control at 4483.4 g/ha: 4 lb/acre
Summary of the method: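 Barnyard grass surface-seeded in potting soil and sprayed pre-emergence one day after seeding, at 8 or 4 lb compound/acre in 38 gal/acre spray volume. Pots kept in greenhouse with sub-irrigation only; injury or control rated visually two weeks after treatment.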

CCOC(=O)C(Sc1nnc(NC(=O)NC)s1)C(=O)OCC [Example 79]
pest or weed control at 4483.4 g/ha [1]: 20% | pest or weed control at 4483.4 g/ha [2]: 20% | pest or weed control at 4483.4 g/ha [3]: 0% | pest or weed control at 4483.4 g/ha [4]: 20% | pest or weed control at 4483.4 g/ha [5]: 50% | pest or weed control at 4483.4 g/ha [6]: 20% | pest or weed control at 4483.4 g/ha [7]: 90% | pest or weed control at 4483.4 g/ha [8]: 30% | pest or weed control at 4483.4 g/ha [9]: 30% | pest or weed control at 4483.4 g/ha [10]: 40% | pest or weed control at 4483.4 g/ha [11]: 40% | pest or weed control at 4483.4 g/ha [12]: 90% | pest or weed control at 4483.4 g/ha [13]: 40% | pest or weed control at 4483.4 g/ha [14]: 60%

CNC(=O)Nc1nnc(SCC#N)s1 [Example 88]
pest or weed control at 4483.4 g/ha [1]: 10% | pest or weed control at 4483.4 g/ha [2]: 10% | pest or weed control at 4483.4 g/ha [15]: 10% | pest or weed control at 4483.4 g/ha [3]: 10% | pest or weed control at 4483.4 g/ha [4]: 70% | pest or weed control at 4483.4 g/ha [5]: 50% | pest or weed control at 4483.4 g/ha [6]: 10% | pest or weed control at 4483.4 g/ha [7]: 100% | pest or weed control at 4483.4 g/ha [8]: 20% | pest or weed control at 4483.4 g/ha [9]: 20% | pest or weed control at 4483.4 g/ha [10]: 20% | pest or weed control at 4483.4 g/ha [11]: 40% | pest or weed control at 4483.4 g/ha [12]: 50% | pest or weed control at 4483.4 g/ha [13]: 20% | pest or weed control at 4483.4 g/ha [14]: 30%

CCCCS(=O)(=O)c1nnc(N(C)C(=O)NC)s1 [Example 92]
pest or weed control at 560.425 g/ha ([1]; 0.5 lb/acre): 40% | pest or weed control at 1120.85 g/ha ([1]; 1 lb/acre): 60% | pest or weed control at 2241.7 g/ha ([1]; 2 lb/acre): 100% | pest or weed control at 4483.4 g/ha [1]: 100% | pest or weed control at 560.425 g/ha ([2]; 0.5 lb/acre): 10% | pest or weed control at 1120.85 g/ha ([2]; 1 lb/acre): 10% | pest or weed control at 2241.7 g/ha ([2]; 2 lb/acre): 30% | pest or weed control at 4483.4 g/ha [2]: 60% | pest or weed control at 560.425 g/ha ([15]; 0.5 lb/acre): 10% | pest or weed control at 1120.85 g/ha ([15]; 1 lb/acre): 50% | pest or weed control at 2241.7 g/ha ([15]; 2 lb/acre): 70% | pest or weed control at 4483.4 g/ha [15]: 90% | pest or weed control at 560.425 g/ha ([3]; 0.5 lb/acre): 10% | pest or weed control at 1120.85 g/ha ([3]; 1 lb/acre): 10% | pest or weed control at 2241.7 g/ha ([3]; 2 lb/acre): 30% | pest or weed control at 4483.4 g/ha [3]: 50% | pest or weed control at 560.425 g/ha ([4]; 0.5 lb/acre): 10% | pest or weed control at 1120.85 g/ha ([4]; 1 lb/acre): 60% | pest or weed control at 2241.7 g/ha ([4]; 2 lb/acre): 90% | pest or weed control at 4483.4 g/ha [4]: 90% | pest or weed control at 560.425 g/ha ([5]; 0.5 lb/acre): 10% | pest or weed control at 1120.85 g/ha ([5]; 1 lb/acre): 10% | pest or weed control at 2241.7 g/ha ([5]; 2 lb/acre): 10% | pest or weed control at 4483.4 g/ha [5]: 10% | pest or weed control at 560.425 g/ha ([6]; 0.5 lb/acre): 10% | pest or weed control at 1120.85 g/ha ([6]; 1 lb/acre): 10% | pest or weed control at 2241.7 g/ha ([6]; 2 lb/acre): 10% | pest or weed control at 4483.4 g/ha [6]: 10% | pest or weed control at 560.425 g/ha ([7]; 0.5 lb/acre): 10% | pest or weed control at 1120.85 g/ha ([7]; 1 lb/acre): 10% | pest or weed control at 2241.7 g/ha ([7]; 2 lb/acre): 10% | pest or weed control at 4483.4 g/ha [7]: 10% | pest or weed control at 560.425 g/ha ([8]; 0.5 lb/acre): 30% | pest or weed control at 1120.85 g/ha ([8]; 1 lb/acre): 30% | pest or weed control ([8]; 2 lb/acre): 90% | pest or weed control at 4483.4 g/ha [8]: 90% | pest or weed control at 560.425 g/ha ([11]; 0.5 lb/acre): 100% | pest or weed control at 1120.85 g/ha ([11]; 1 lb/acre): 100% | pest or weed control at 2241.7 g/ha ([11]; 2 lb/acre): 100% | pest or weed control at 4483.4 g/ha [11]: 100% | pest or weed control at 560.425 g/ha ([12]; 0.5 lb/acre): 100% | pest or weed control at 1120.85 g/ha ([12]; 1 lb/acre): 100% | pest or weed control at 2241.7 g/ha ([12]; 2 lb/acre): 100% | pest or weed control at 4483.4 g/ha [12]: 100% | pest or weed control at 560.425 g/ha ([14]; 0.5 lb/acre): 70% | pest or weed control at 1120.85 g/ha ([14]; 1 lb/acre): 80% | pest or weed control at 2241.7 g/ha ([14]; 2 lb/acre): 90% | pest or weed control at 4483.4 g/ha [14]: 100%
